A short description of data set [1]: Plasma concentration of teverelix in patients versus weight. It counts as in vivo. The following applies: different patients.
Data set [2] in a line: Injection site reaction after subcutaneous and/or intramuscular injection. It counts as in vivo. The conditions noted are these: 30-100 mg/ml, 0.4-1.6 ml.

Square brackets hold non-standard residues; d marks the D form. Peptide text beside a SMILES is read from it. dPhe(4-Cl) = N[C@H](Cc1ccc(Cl)cc1)C(=O)O; d2Nal = N[C@H](Cc1ccc2ccccc2c1)C(=O)O; d(hCit) = NC(=O)NCCCC[C@@H](N)C(=O)O; Lys(iPr) = CC(C)NCCCC[C@H](N)C(=O)O; d3Pal = N[C@H](Cc1cccnc1)C(=O)O

For `CC(=O)N[C@H](Cc1ccc2ccccc2c1)C(=O)N[C@H](Cc1ccc(Cl)cc1)C(=O)N[C@H](Cc1cccnc1)C(=O)N[C@@H](CO)C(=O)N[C@@H](Cc1ccc(O)cc1)C(=O)N[C@H](CCCCNC(N)=O)C(=O)N[C@@H](CC(C)C)C(=O)N[C@@H](CCCCNC(C)C)C(=O)N1CCC[C@H]1C(=O)N[C@H](C)C(N)=O` [teverelix, Ac-D-Nal-D-pClPhe-D-Pal-Ser-Tyr-D-Hci-Leu-Lys (iPr)-Pro-D-Ala-NH2] (Ac-[d2Nal][dPhe(4-Cl)][d3Pal]SY[d(hCit)]L[Lys(iPr)]P[dA]-NH2), the “dependence of plasma concentration of teverelix on patients weight” value in data set [1] is reported as “substantially independent of the patients weight”. In data set [2], the injection site reaction result is given as “mild injection site reaction”.

Source of the values: patent US12458680B2, “Reconstitutable teverelix-TFA composition” (Antev Limited, priority 2018, dated 2025).
